Assay results: patent publication US20210330611A1, “THERAPY FOR NEUROLOGICAL DISEASES/DISORDERS” (priority 2020, published 2021)
Read-outs that look alike come from different tables or passages of the source. Where a SMILES comes first, the peptide text is derived from it. [ ]: non-standard residue; d: D form. pGlu = O=C1CC[C@@H](C(=O)O)N1; Thz = O=C(O)[C@@H]1CSCN1

Experiments:
[1] = tested on: primary rat microglia
[2] = tested on: fibrin- and LPS-induced microglia activation; assay: cells; type: cell-based, rat
[3] = tested on: fibrin-induced microglia activation; assay: Image-based assay of fibrin-induced microglia activation (HTS and dose response); type: cell-based, rat; settings: primary microglia HTS, fibrin stimulation; for inhibition at 10 µM: Rattus norvegicus, Microglia, read-out: Fibrin % inhibition
[4] = tested on: primary rat microglia; assay: Cell toxicity (dead cells, size <150 μm2) in coated fibrin (cFib) assay; settings: primary microglia HTS;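 further: share of dead cells sized under 150 µm2 at 10 µM in fibrin-stimulated microglia HTS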
[5] = tested on: LPS-induced microglia activation; assay: Image-based assay of LPS-induced microglia activation (HTS and dose response); type: cell-based, rat; settings: for inhibition at 10 µM: Rattus norvegicus, Microglia, read-out: LPS % inhibition
[6] = classification by fibrin and LPS inhibition, HTS at 10 μM
[7] = fibrin assay, dead cells (size <150 μm2), compounds at 10 μM
[8] = primary microglia HTS, LPS stimulation, compounds at 10 μM
[9] = classification by fibrin and LPS inhibition in HTS
[10] = cell size >800 μm2 as marker of activation
[11] = fibrin stimulation, cell size <150 μm2 as marker of toxicity
[12] = quadrant by fibrin and LPS inhibition, HTS at 10 μM
[13] = fibrin assay, dead cells (size <150 μm2)

Question: What does the source list for `CCCCCCCCCC(=O)N[C@@H](Cc1c[nH]c2ccccc12)C(=O)N[C@@H](CC(N)=O)C(=O)N[C@@H](CC(=O)O)C(=O)N[C@@H]1C(=O)NCC(=O)N[C@@H](CCCN)C(=O)N[C@@H](CC(=O)O)C(=O)N[C@H](C)C(=O)N[C@@H](CC(=O)O)C(=O)NCC(=O)N[C@H](CO)C(=O)N[C@@H]([C@H](C)CC(=O)O)C(=O)N[C@@H](CC(=O)c2ccccc2N)C(=O)O[C@@H]1C` [Daptomycin (5 Millimolar/dmso)]?
Answer: LPS % cell toxicity [1]: 0%; Quadrant (FIG. 5b) [2, 6]: Q4; Fibrin % inhibition ([3]; compounds at 10 μM): −6%; Fibrin % cell toxicity [4, 7]: 1%; LPS % inhibition [5, 8]: 17%

Question: `O=C1CC[C@@H](C(=O)N2CSC[C@H]2C(=O)O)N1` [Pidotimod] ([pGlu]-[Thz]-OH) was tested. Which “LPS % cell toxicity” value ([1]; rat) did it give?
Answer: 0%

Question: And the “Quadrant (FIG. 5b)” value [2, 9]?
Answer: Q4

Question: And the inhibition at 10 µM [3, 10]?
Answer: -10%

Question: And the “Fibrin % cell toxicity” value [4, 11]?
Answer: 1%

Question: What about the inhibition at 10 µM ([5]; 48 h) of the same compound?
Answer: 14%

Question: Which results are given for `COc1ccc(C(=O)CC(=O)c2ccc(C(C)(C)C)cc2)cc1` [Avobenzone]?
Answer: LPS % cell toxicity ([1]; rat): 0%; Quadrant (FIG. 5b) [2, 12]: Q4; inhibition at 10 µM ([3]; compounds at 10 μM): 22%; Fibrin % cell toxicity [4, 13]: 1%; inhibition at 10 µM [5, 8]: 20%

Question: `CC1=NS(=O)(=O)c2cc(Cl)ccc2N1` [Diazoxide] was tested. Which “LPS % cell toxicity” value ([1]; rat) did it give?
Answer: 0%

Question: And the “Quadrant (FIG. 5b)” value [2, 6]?
Answer: Q4

Question: What about the inhibition at 10 µM ([3]; compounds at 10 μM) of the same compound?
Answer: 3%

Question: What about the “Fibrin % cell toxicity” value [4, 7] of the same compound?
Answer: 0%

Question: And the inhibition at 10 µM [5, 8]?
Answer: 24%

Question: Which results are given for `CC(=O)NC(Cc1ccccc1)C(=O)O` (stereo not drawn) [Afalanine]?
Answer: LPS % cell toxicity ([1]; rat): 0%; Quadrant (FIG. 5b) [2, 12]: Q4; inhibition at 10 µM ([3]; compounds at 10 μM): 0%; Fibrin % cell toxicity [4, 13]: 1%; inhibition at 10 µM [5, 8]: 10%

Question: Which “LPS % cell toxicity” value ([1]; rat) does the source give for `COc1ccc(-c2ccc3cc(C(=O)O)ccc3c2)cc1C12CC3CC(CC(C3)C1)C2` [Adapalene] here?
Answer: 4%

Question: And the “Quadrant (FIG. 5b)” value [2, 12]?
Answer: Q4

Question: What about the inhibition at 10 µM ([3]; compounds at 10 μM) of the same compound?
Answer: -12%

Question: What about the “Fibrin % cell toxicity” value [4, 13] of the same compound?
Answer: 2%

Question: And the inhibition at 10 µM [5, 8]?
Answer: 45%

Question: Which results are given for `C=CC[N+]1([C@H]2C[C@H]3[C@@H]4CC[C@H]5C[C@H](O)[C@@H](N6CCOCC6)C[C@]5(C)[C@H]4CC[C@]3(C)[C@H]2OC(C)=O)CCCC1` [Rocuronium]?
Answer: LPS % cell toxicity ([1]; rat): 0%; Quadrant (FIG. 5b) [2, 9]: Q4; inhibition at 10 µM [3, 10]: -22%; Fibrin % cell toxicity [4, 11]: 1%; inhibition at 10 µM ([5]; 48 h): 5%

Question: For `COC(=O)[C@H](Cc1ccccc1)NC(=O)[C@@H](N)CC(=O)O` [Aspartame] (H-Asp-Phe-OMe), which “LPS % cell toxicity” value ([1]; rat) is on record?
Answer: 0%

Question: What about the “Quadrant (FIG. 5b)” value [2, 12] of the same compound?
Answer: Q4

Question: And the inhibition at 10 µM ([3]; compounds at 10 μM)?
Answer: -15%

Question: And the “Fibrin % cell toxicity” value [4, 13]?
Answer: 1%

Question: What about the inhibition at 10 µM [5, 8] of the same compound?
Answer: 7%

Question: For `O=C(O)CCC(=O)c1ccc(-c2ccccc2)cc1` [Fenbufen], which “LPS % cell toxicity” value ([1]; rat) is on record?
Answer: 0%

Question: And the “Quadrant (FIG. 5b)” value [2, 6]?
Answer: Q4

Question: What about the inhibition at 10 µM ([3]; compounds at 10 μM) of the same compound?
Answer: 3%

Question: What about the “Fibrin % cell toxicity” value [4, 7] of the same compound?
Answer: 0%

Question: What about the inhibition at 10 µM [5, 8] of the same compound?
Answer: 25%

Question: Which results are given for `Nc1ncnc2c1ncn2[C@@H]1O[C@H](COP(=O)(O)O)[C@@H](O)[C@H]1O` [Adenosine monophosphate]?
Answer: LPS % cell toxicity ([1]; rat): 0%; Quadrant (FIG. 5b) [2, 12]: Q4; Fibrin % inhibition ([3]; compounds at 10 μM, 10 µM): −30%; Fibrin % cell toxicity [4, 13]: 1%; LPS % inhibition ([5]; primary microglia HTS, LPS stimulation, compounds at 10 μM, 10 µM): 4%

Question: For `C[C@@](Cc1ccc(O)c(O)c1)(NN)C(=O)O` [S-(−)-carbidopa, Carbidopa], which “LPS % cell toxicity” value [1] is on record?
Answer: 0%

Question: What about the “Quadrant (FIG. 5b)” value [2, 9] of the same compound?
Answer: Q4

Question: What about the Fibrin % inhibition [3, 10] of the same compound?
Answer: −91%

Question: What about the “Fibrin % cell toxicity” value [4, 11] of the same compound?
Answer: 0%

Question: And the LPS % inhibition [5]?
Answer: 16%

Question: `C=CC(N)CCC(=O)O` (racemic) [(±)-gamma-vinyl Gaba, Vigabatrin] was tested. Which “LPS % cell toxicity” value [1] did it give?
Answer: 0%

Question: And the “Quadrant (FIG. 5b)” value [2, 12]?
Answer: Q4

Question: What about the Fibrin % inhibition ([3]; compounds at 10 μM) of the same compound?
Answer: 8%

Question: What about the “Fibrin % cell toxicity” value [4, 13] of the same compound?
Answer: 1%

Question: What about the LPS % inhibition [5, 8] of the same compound?
Answer: 12%

Question: For `Nc1nc(N)c2nc(CNc3ccc(C(=O)N[C@@H](CCC(=O)O)C(=O)O)cc3)cnc2n1` [Aminopterin], which “LPS % cell toxicity” value ([1]; rat) is on record?
Answer: 0%

Question: And the “Quadrant (FIG. 5b)” value [2, 12]?
Answer: Q4

Question: And the inhibition at 10 µM ([3]; compounds at 10 μM)?
Answer: -12%

Question: What about the “Fibrin % cell toxicity” value [4, 13] of the same compound?
Answer: 1%

Question: What about the inhibition at 10 µM [5, 8] of the same compound?
Answer: 17%

Question: How did the “LPS % cell toxicity” value ([1]; rat) turn out when `CC(=O)NCCCCCC(=O)O` [Acexamic Acid] was run?
Answer: 0%

Question: What about the “Quadrant (FIG. 5b)” value [2, 12] of the same compound?
Answer: Q4

Question: And the inhibition at 10 µM ([3]; compounds at 10 μM)?
Answer: -25%

Question: What about the “Fibrin % cell toxicity” value [4, 13] of the same compound?
Answer: 1%

Question: What about the inhibition at 10 µM [5, 8] of the same compound?
Answer: 13%

Question: Which “LPS % cell toxicity” value ([1]; rat) does the source give for `CC(C)c1ccc2oc3nc(N)c(C(=O)O)cc3c(=O)c2c1` [Amlexanox] here?
Answer: 0%

Question: What about the “Quadrant (FIG. 5b)” value [2, 12] of the same compound?
Answer: Q4

Question: What about the inhibition at 10 µM ([3]; compounds at 10 μM) of the same compound?
Answer: -17%

Question: What about the “Fibrin % cell toxicity” value [4, 13] of the same compound?
Answer: 0%

Question: What about the inhibition at 10 µM [5, 8] of the same compound?
Answer: -4%

Question: With `CCC1(C)OC(=O)N(C)C1=O` (stereo not drawn) [Paramethadione] as the compound, how does the “LPS % cell toxicity” value ([1]; rat) read?
Answer: 0%

Question: And the “Quadrant (FIG. 5b)” value [2, 9]?
Answer: Q4

Question: What about the inhibition at 10 µM [3, 10] of the same compound?
Answer: -15%

Question: And the “Fibrin % cell toxicity” value [4, 11]?
Answer: 0%

Question: And the inhibition at 10 µM ([5]; 48 h)?
Answer: 3%

Question: Which “LPS % cell toxicity” value ([1]; rat) does the source give for `C[Se]CC[C@H](N)C(=O)O` [Selenomethionine] here?
Answer: 0%

Question: What about the “Quadrant (FIG. 5b)” value [2, 9] of the same compound?
Answer: Q4

Question: And the inhibition at 10 µM [3, 10]?
Answer: -5%

Question: And the “Fibrin % cell toxicity” value [4, 11]?
Answer: 1%

Question: And the inhibition at 10 µM ([5]; 48 h)?
Answer: 10%

Question: For `Nc1nc2c(ncn2CCC(CO)CO)c(=O)[nH]1` [Penciclovir], which “LPS % cell toxicity” value ([1]; rat) is on record?
Answer: 0%

Question: What about the “Quadrant (FIG. 5b)” value [2, 9] of the same compound?
Answer: Q4

Question: And the inhibition at 10 µM [3, 10]?
Answer: -44%

Question: What about the “Fibrin % cell toxicity” value [4, 11] of the same compound?
Answer: 1%

Question: And the inhibition at 10 µM ([5]; 48 h)?
Answer: 4%
